Test in all cases: relative viability (nuclei count vs DMSO), 5 days (fraction); higher = more cells survive
Compound in the assay “CAP-232 + AZD7762”: C[C@H]([C@@H](C(=O)N)NC(=O)[C@@H]1CSSC[C@@H](C(=O)N[C@H](C(=O)N[C@@H](C(=O)N[C@H](C(=O)N1)CCCCN)CC2=CNC3=CC=CC=C32)CC4=CC=C(C=C4)O)NC(=O)[C@@H](CC5=CC=CC=C5)N)O [CAP-232] + NC(=O)Nc1cc(-c2cccc(F)c2)sc1C(=O)N[C@H]1CCCNC1 [AZD7762] (partner 0.2 µM)
The method, boiled down: (§1)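 Nuclei were stained with Hoechst during a one-step fixation (final 0.05% Triton X-100, 1% formaldehyde, 1 ug/ml Hoechst) carried out 5 days after dosing, then counted on 4× images. The cells, lung cancer lines in 1536-well plates, had been dosed by pin tool the day after seeding with one drug alone or a fixed anchor-drug dose plus five library-drug doses (not always all listed) in √10 steps. Relative viability is the nuclei count in treated wells divided by that in vehicle wells, and each value is the median of duplicate plates.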

Compound in the assay “CAP-232 + Luminespib”: C[C@H]([C@@H](C(=O)N)NC(=O)[C@@H]1CSSC[C@@H](C(=O)N[C@H](C(=O)N[C@@H](C(=O)N[C@H](C(=O)N1)CCCCN)CC2=CNC3=CC=CC=C32)CC4=CC=C(C=C4)O)NC(=O)[C@@H](CC5=CC=CC=C5)N)O [CAP-232] + CCNC(=O)c1noc(-c2cc(C(C)C)c(O)cc2O)c1-c1ccc(CN2CCOCC2)cc1 [Luminespib] (partner 0.01 µM)
A digest of the protocol: as §1

Compound in the assay “CAP-232 + Linsitinib”: C[C@H]([C@@H](C(=O)N)NC(=O)[C@@H]1CSSC[C@@H](C(=O)N[C@H](C(=O)N[C@@H](C(=O)N[C@H](C(=O)N1)CCCCN)CC2=CNC3=CC=CC=C32)CC4=CC=C(C=C4)O)NC(=O)[C@@H](CC5=CC=CC=C5)N)O [CAP-232] + C[C@]1(O)C[C@@H](c2nc(-c3ccc4ccc(-c5ccccc5)nc4c3)c3c(N)nccn32)C1 [Linsitinib] (partner 1 µM)
A digest of the protocol:
as §1

Compound in the assay “CAP-232 + Olaparib”: C[C@H]([C@@H](C(=O)N)NC(=O)[C@@H]1CSSC[C@@H](C(=O)N[C@H](C(=O)N[C@@H](C(=O)N[C@H](C(=O)N1)CCCCN)CC2=CNC3=CC=CC=C32)CC4=CC=C(C=C4)O)NC(=O)[C@@H](CC5=CC=CC=C5)N)O [CAP-232] + O=C(c1cc(Cc2n[nH]c(=O)c3ccccc23)ccc1F)N1CCN(C(=O)C2CC2)CC1 [Olaparib] (partner 8 µM)
The method, boiled down:
as §1

Compound in the assay “CAP-232 + Palbociclib”: C[C@H]([C@@H](C(=O)N)NC(=O)[C@@H]1CSSC[C@@H](C(=O)N[C@H](C(=O)N[C@@H](C(=O)N[C@H](C(=O)N1)CCCCN)CC2=CNC3=CC=CC=C32)CC4=CC=C(C=C4)O)NC(=O)[C@@H](CC5=CC=CC=C5)N)O [CAP-232] + CC(=O)c1c(C)c2cnc(Nc3ccc(N4CCNCC4)cn3)nc2n(C2CCCC2)c1=O [Palbociclib] (partner 0.5 µM)
A digest of the protocol:
as §1

For the cell line 201T, the relative viability with CAP-232 + AZD7762 (first compound 0.4 µM) stood at 0.636; in the assay with CAP-232 + AZD7762 (first compound 1.265 µM), 0.716; with CAP-232 + AZD7762 (first compound 4 µM), 0.643; with CAP-232 + AZD7762 (first compound 12.65 µM), 0.643; with CAP-232 + Luminespib (first compound 0.4 µM) it was 1.08; with CAP-232 + Luminespib (first compound 1.265 µM) it was 1.04. The relative viability turned out to be 0.967 with CAP-232 + Luminespib (first compound 4 µM); 1.07 with CAP-232 + Luminespib (first compound 12.65 µM); 1.05 in the assay with CAP-232 + Linsitinib (first compound 0.4 µM); 0.974 in the assay with CAP-232 + Linsitinib (first compound 1.265 µM); 0.978 in the assay with CAP-232 + Linsitinib (first compound 4 µM); 0.948 in the assay with CAP-232 + Linsitinib (first compound 12.65 µM). The relative viability with CAP-232 + Olaparib (first compound 0.4 µM) is 0.892; with CAP-232 + Olaparib (first compound 1.265 µM), 0.833; with CAP-232 + Olaparib (first compound 4 µM), 0.871; with CAP-232 + Olaparib (first compound 12.65 µM), 0.854; in the assay with CAP-232 + Palbociclib (first compound 0.4 µM), 0.357; with CAP-232 + Palbociclib (first compound 1.265 µM), 0.354. For the same cell line, the figures for the relative viability in the assay with CAP-232 + Palbociclib (first compound 4 µM) and with CAP-232 + Palbociclib (first compound 12.65 µM) were 0.317 and 0.376, respectively.
Consider A549, for which the relative viability worked out at 0.621 with CAP-232 + Linsitinib (first compound 0.4 µM); 0.59 with CAP-232 + Linsitinib (first compound 1.265 µM); 0.583 in the assay with CAP-232 + Linsitinib (first compound 4 µM); 0.531 in the assay with CAP-232 + Linsitinib (first compound 12.65 µM); 0.211 with CAP-232 + Olaparib (first compound 0.4 µM); 0.292 in the assay with CAP-232 + Olaparib (first compound 1.265 µM). In addition, the relative viability amounted to 0.396 with CAP-232 + Olaparib (first compound 4 µM) and 0.326 with CAP-232 + Olaparib (first compound 12.65 µM).
A-427: the relative viability was found to be 0.72 in the assay with CAP-232 + AZD7762 (first compound 0.4 µM); 0.754 with CAP-232 + AZD7762 (first compound 1.265 µM); 0.811 with CAP-232 + AZD7762 (first compound 4 µM); 0.746 with CAP-232 + AZD7762 (first compound 12.65 µM); 0.697 with CAP-232 + Luminespib (first compound 0.4 µM); 0.968 with CAP-232 + Luminespib (first compound 1.265 µM). The relative viability with CAP-232 + Luminespib (first compound 4 µM) came to 0.87; in the assay with CAP-232 + Luminespib (first compound 12.65 µM), 1.03; with CAP-232 + Linsitinib (first compound 0.4 µM), 1.14; with CAP-232 + Linsitinib (first compound 1.265 µM), 1.09; with CAP-232 + Linsitinib (first compound 4 µM), 1.15; with CAP-232 + Linsitinib (first compound 12.65 µM) it was 1.12. The relative viability in the assay with CAP-232 + Olaparib (first compound 0.4 µM) turned out to be 0.813; in the assay with CAP-232 + Olaparib (first compound 1.265 µM) it was 0.646; with CAP-232 + Olaparib (first compound 4 µM) it was 0.808; in the assay with CAP-232 + Olaparib (first compound 12.65 µM) it was 0.814; with CAP-232 + Palbociclib (first compound 0.4 µM) it was 0.528; in the assay with CAP-232 + Palbociclib (first compound 1.265 µM), 0.554. The relative viability came to 0.508 with CAP-232 + Palbociclib (first compound 4 µM) and 0.467 with CAP-232 + Palbociclib (first compound 12.65 µM).
For the cell line ABC-1, the relative viability with CAP-232 + AZD7762 (first compound 0.4 µM) was 0.883; with CAP-232 + AZD7762 (first compound 1.265 µM), 0.541; in the assay with CAP-232 + AZD7762 (first compound 4 µM), 0.803; in the assay with CAP-232 + AZD7762 (first compound 12.65 µM), 0.692; in the assay with CAP-232 + Luminespib (first compound 0.4 µM) it was 0.554; with CAP-232 + Luminespib (first compound 1.265 µM) it was 0.587. The relative viability amounted to 0.686 in the assay with CAP-232 + Luminespib (first compound 4 µM); 0.377 in the assay with CAP-232 + Luminespib (first compound 12.65 µM); 1.07 with CAP-232 + Linsitinib (first compound 0.4 µM); 0.781 with CAP-232 + Linsitinib (first compound 1.265 µM); 0.726 with CAP-232 + Linsitinib (first compound 4 µM); 0.427 in the assay with CAP-232 + Linsitinib (first compound 12.65 µM). Moreover, the relative viability with CAP-232 + Olaparib (first compound 0.4 µM) was 0.778; with CAP-232 + Olaparib (first compound 4 µM), 0.665; with CAP-232 + Olaparib (first compound 12.65 µM), 0.368; with CAP-232 + Palbociclib (first compound 0.4 µM) it was 0.641; with CAP-232 + Palbociclib (first compound 4 µM) it was 0.691; with CAP-232 + Palbociclib (first compound 12.65 µM) it was 0.513.
Turning to BEN, the relative viability with CAP-232 + AZD7762 (first compound 0.4 µM) worked out at 0.789; with CAP-232 + AZD7762 (first compound 1.265 µM) it was 0.714; with CAP-232 + AZD7762 (first compound 4 µM), 0.7; with CAP-232 + AZD7762 (first compound 12.65 µM) it was 0.553; with CAP-232 + Luminespib (first compound 0.4 µM), 0.501; in the assay with CAP-232 + Luminespib (first compound 1.265 µM) it was 0.234. The relative viability with CAP-232 + Luminespib (first compound 4 µM) is 0.184; with CAP-232 + Luminespib (first compound 12.65 µM), 0.371; in the assay with CAP-232 + Linsitinib (first compound 0.4 µM) it was 0.952; with CAP-232 + Linsitinib (first compound 1.265 µM), 0.944; with CAP-232 + Linsitinib (first compound 4 µM), 0.818; with CAP-232 + Linsitinib (first compound 12.65 µM) it was 0.896. Besides, the relative viability in the assay with CAP-232 + Olaparib (first compound 0.4 µM) came out at 1.02; in the assay with CAP-232 + Olaparib (first compound 1.265 µM), 1.04; with CAP-232 + Olaparib (first compound 4 µM) it was 0.959; with CAP-232 + Olaparib (first compound 12.65 µM), 1.07; with CAP-232 + Palbociclib (first compound 0.4 µM), 0.516; with CAP-232 + Palbociclib (first compound 1.265 µM) it was 0.46. The relative viability with CAP-232 + Palbociclib (first compound 4 µM) amounted to 0.456; with CAP-232 + Palbociclib (first compound 12.65 µM), 0.448.
As for CAL-12T, the relative viability turned out to be 0.753 with CAP-232 + AZD7762 (first compound 0.4 µM); 0.596 in the assay with CAP-232 + AZD7762 (first compound 1.265 µM); 0.664 with CAP-232 + AZD7762 (first compound 4 µM); 0.706 in the assay with CAP-232 + AZD7762 (first compound 12.65 µM); 0.132 with CAP-232 + Luminespib (first compound 0.4 µM); 0.184 in the assay with CAP-232 + Luminespib (first compound 1.265 µM). Further, the relative viability with CAP-232 + Luminespib (first compound 4 µM) is 0.242; in the assay with CAP-232 + Luminespib (first compound 12.65 µM), 0.155; with CAP-232 + Linsitinib (first compound 0.4 µM), 0.812; with CAP-232 + Linsitinib (first compound 1.265 µM), 0.784; with CAP-232 + Linsitinib (first compound 4 µM) it was 0.892; with CAP-232 + Linsitinib (first compound 12.65 µM), 0.966. Besides, the relative viability in the assay with CAP-232 + Olaparib (first compound 0.4 µM) is 0.778; with CAP-232 + Olaparib (first compound 1.265 µM), 0.767; with CAP-232 + Olaparib (first compound 4 µM), 0.696; with CAP-232 + Olaparib (first compound 12.65 µM) it was 0.6; with CAP-232 + Palbociclib (first compound 0.4 µM), 0.422; in the assay with CAP-232 + Palbociclib (first compound 1.265 µM), 0.552. For the same cell line, the relative viability with CAP-232 + Palbociclib (first compound 4 µM) was determined as 0.376; with CAP-232 + Palbociclib (first compound 12.65 µM), 0.179.
COR-L23: the relative viability with CAP-232 + Luminespib (first compound 0.4 µM) came out at 0.475; in the assay with CAP-232 + Luminespib (first compound 1.265 µM), 0.776; in the assay with CAP-232 + Luminespib (first compound 4 µM), 0.81; with CAP-232 + Luminespib (first compound 12.65 µM), 0.506; with CAP-232 + Linsitinib (first compound 0.4 µM) it was 0.92; with CAP-232 + Linsitinib (first compound 1.265 µM), 1. Moreover, the relative viability with CAP-232 + Linsitinib (first compound 4 µM) amounted to 0.971; with CAP-232 + Linsitinib (first compound 12.65 µM) it was 0.676; with CAP-232 + Olaparib (first compound 0.4 µM), 0.43; in the assay with CAP-232 + Olaparib (first compound 1.265 µM) it was 0.403; with CAP-232 + Olaparib (first compound 4 µM) it was 0.404; with CAP-232 + Olaparib (first compound 12.65 µM), 0.279. For the same cell line, the relative viability with CAP-232 + Palbociclib (first compound 0.4 µM) worked out at 0.338; in the assay with CAP-232 + Palbociclib (first compound 1.265 µM), 0.29; with CAP-232 + Palbociclib (first compound 4 µM) it was 0.304; in the assay with CAP-232 + Palbociclib (first compound 12.65 µM), 0.255.
Consider COR-L 105, for which the relative viability in the assay with CAP-232 + Luminespib (first compound 0.4 µM) turned out to be 0.768; in the assay with CAP-232 + Luminespib (first compound 1.265 µM), 0.652; in the assay with CAP-232 + Luminespib (first compound 4 µM) it was 0.737; with CAP-232 + Luminespib (first compound 12.65 µM) it was 0.494; with CAP-232 + Linsitinib (first compound 0.4 µM) it was 0.963; in the assay with CAP-232 + Linsitinib (first compound 1.265 µM), 0.816. Moreover, the relative viability amounted to 1.08 in the assay with CAP-232 + Linsitinib (first compound 4 µM); 0.61 with CAP-232 + Linsitinib (first compound 12.65 µM); 0.733 in the assay with CAP-232 + Olaparib (first compound 0.4 µM); 0.61 with CAP-232 + Olaparib (first compound 1.265 µM); 0.712 in the assay with CAP-232 + Olaparib (first compound 4 µM); 0.571 with CAP-232 + Olaparib (first compound 12.65 µM). Further, the relative viability was 0.395 in the assay with CAP-232 + Palbociclib (first compound 0.4 µM), 0.401 in the assay with CAP-232 + Palbociclib (first compound 1.265 µM), 0.384 with CAP-232 + Palbociclib (first compound 4 µM) and 0.387 with CAP-232 + Palbociclib (first compound 12.65 µM).
